Data on one molecule can be found in patent publication US8987316B2, “Isocyanate and isothiocyanate compounds for cancer treatment” (priority 2011, dated 2015).

One data set has as its system MAXF-401 xenograft tumor. The data set can be described thus: Dose-dependent anti-tumor activity in the MAXF-401 xenograft tumor model. Format: in vivo. The protocol: (§1) Breast tumors (MAXF 401) were implanted subcutaneously into the rear members of the mice aged 10 weeks. The increase in the volume of the individual tumors was measured using microcallipers, and the size of the tumor was calculated according to the formula a*b^2/2 (where a is the largest diameter of the tumor and b is the vertical axis). When the tumor volume had increased to 80-120 mm^3, the animals were allocated at random into test groups of in each case 6 animals.
The anti-tumor activity of the substance of Example 2a (sodium salt) was tested in a xenograft tumor panel. Therefore, xenografts of human tumors derived from the mentioned cancers were implanted in nude mice. The implantation and the determination of tumor volumes were carried out as described hereinbefore. Groups of 5 to 8 animals were used. The test compound was administered by ip injection twice weekly in the mentioned doses in the form of the sodium salt as an aqueous solution.
Therein, the anti-tumor activity of the compound of Example 2a (sodium salt) was examined in the MAXF-401 xenograft tumor model in the nude mouse. Subcutaneous implantation of the tumor and the determination of the tumor volume was carried out as described hereinbefore. The test compound was administered by ip injection twice weekly in the mentioned doses in the form of the sodium salt as an aqueous solution over a period of 4 weeks. […] A dose of 100 mg/kg was determined as the threshold dose, ≧200 mg/kg as the ED90 of the anti-tumor activity.

In a further data set the test system is Breast tumors (MAXF 401). The data set can be described thus: Breast tumor MAXF 401 xenograft in nude mice, T/C value and mortality. Format: in vivo. To be noted: ip twice weekly over 5 weeks. The method, then:
(§2) All the tests were carried out using female nude mice under standard conditions for the keeping of animals with controlled illumination and temperature. The animals were given water and food as desired.
as §1
The test compound (in the form of sodium salts) was dissolved in a saline solution, and 5% Klucel (hydroxypropylcellulose) was added in order to dissolve the test compound in the carrier. The compound was administered by intraperitoneal injection. A volume of 10 ml/kg body weight was injected. […] The tumor volume and the body weight were checked twice weekly, and the relative tumor volumes were calculated as the […]. […]
On the basis of the relative tumor volumes of the animals treated with the test compound compared with the tumor volumes of the controls treated only with the carrier, the T/C values were calculated and were used as the index of anti-tumor activity. […]

Data set [1] deals with CXF280 xenograft tumor (colon carcinoma). Nature of the data set: Dose-dependent anti-tumor activity in the CXF280 colon carcinoma xenograft model. Format: in vivo. The method, then:
as §1
The anti-tumor activity of the compound of Example 2a was thereby determined in the CXF280 xenograft tumor model in the nude mouse. Subcutaneous implantation of the tumor and the determination of tumor volumes were carried out as described hereinbefore. The test substance was administered by ip injection twice weekly in the mentioned doses in the form of the sodium salt as an aqueous solution, over a period of 4 weeks. Groups of in each case 8 animals were used.

The nature of data set [2]: Necrotic changes in the kidneys of treated animals. Format: in vivo, nude mice. To be noted: affected animals/animals. The protocol:
as §2
No necrotic changes were found in the kidneys of the animals treated with the compound according to the invention. This confirms the excellent tolerability profile of the compounds according to the invention.

Where [3] appears, read: MAXF-401, ip twice weekly over 4 weeks, sodium salt.

In the case of `O=C(O)CCOc1ccc(C(=O)c2ccc(N=C=S)cc2)cc1` [Example 2a], the tolerability result with MAXF-401 xenograft tumor (MAXF-401, dose range used) is given as “well tolerated”. Besides, in the data set with MAXF-401 xenograft tumor (MAXF-401, dose ≧200 mg/kg), the “tumor response under therapy” value is recorded as “remission of the tumors was observed”. In addition, in the data set with MAXF-401 xenograft tumor (setting [3]), the “ED90 of the anti-tumor activity” value is on record as not below 200 mg/kg and the “threshold dose of the anti-tumor activity” value was found to be 100 mg/kg. Moreover, the T/C value in the data set with Breast tumors (MAXF 401) (MAXF 401 breast tumor, sodium salt, ratio of tumor size treated/untreated, 100% would be no activity) came out at 1.7. Moreover, the Mortality in the data set with Breast tumors (MAXF 401) (dead animals/animals in the group) is on record as 0/6. Moreover, in data set [1] (CXF280, dose group of 200 mg/kg and 300 mg/kg), the “tumor growth inhibition and remission” value is “complete inhibition of tumor growth and the induction of remissions to obliteration of the tumor”. Further, in data set [1] (CXF280, dose range used), the tolerability result is listed as “well tolerated” and the “weight loss in the animals” value is recorded as “not associated with a significant weight loss”. In addition, the anti-tumor action entry in data set [1] (CXF280, doses of 100, 200 or 300 mg/kg ip twice weekly over 4 weeks) is given as “pronounced anti-tumor action”. The ED90 doses in data set [1] (CXF280, ip twice weekly over 4 weeks) was 200 mg/kg. Besides, in data set [2], the Acute single-cell necrosis is listed as 0/9 and the Focal tubular necrosis is on record as 0/9.
